Converted amounts (≈) assume the structure as drawn.
What was measured:
MDCK = MDCK permeability assay; type: in vitro ADME; conditions: pH 7.4
Method: (§1) This assay is for generating screening data only, and to estimate the intestinal absorption potential of drug candidates. The study will be conducted in accordance with International Bioethical Standards “World MedicalAssociation Declaration of Helsinki.
(§2) Cell line: • ▪ MDCK (ATCC), or MDCK MDR1 (NKI).
(§3) Prepare donor buffer: • For A-to-B direction: • ✔ HBSS buffer with 0.3% DMSO and 5 µM Lucifer Yellow (LY): add 150 µL DMSO and 125 µL LY (2 mM) into 50 mL HBSS buffer (pH 7.4). • ✔ HBSS buffer with 0.1% DMSO and 5 µM Lucifer Yellow (LY): add 50 µL DMSO and 125 µL LY (2 mM) into 50 mL HBSS buffer (pH 7.4). • ✔ HBSS buffer with 5 µM Lucifer Yellow (LY): add 125 µL LY (2 mM) into 50 mL HBSS buffer (pH 7.4). • For B-to-A direction: • ✔ HBSS buffer with 0.3% DMSO: add 150 µL DMSO into 50 mL HBSS buffer (pH 7.4). • ✔ HBSS buffer with 0.1% DMSO: add 50 µL DMSO into 50 mL HBSS buffer (pH 7.4). • ✔ HBSS buffer without DMSO. • Prepare receiver buffer: • For A-to-B direction: Prepare HBSS buffer with 0.4% DMSO: add 200 µL DMSO into 50 mL HBSS buffer (pH 7.4) • For B-to-A direction: Prepare HBSS buffer with 0.4% DMSO and 5 µM LY: add 200 uL DMSO and 125 µL LY (2 mM) into 50 mL HBSS buffer (pH 7.4) • Controls: • Prepare 10 mM stock concentrations of compound in DMSO and Lucifer Yellow in assay buffer using the following formula: • (Actual Weight/Molecular Weight)/mL solvent =10 mM • Reference compound: Erythromycin, Metoprolol, Atenolol
(§4) MDCK assay plates are seeded 3-4 days prior to running the assay. 24-well plates are seeded at a cell density of 0.88 × 10^5/well in a 400 µL apical chamber volume (2.2×10^5 /mL) with a 25 mL volume of growth medium to the 24-well basal chamber. Assay plates are generally provided with a growth medium change 24 hours prior to the assay.
(§5) MDCK assay plates are rinsed with HBSS+ buffer prior to running the assay. After rinsing, fresh HBSS+ is added to the assay plate in a 400 µL apical chamber volume and a 0.8 mL HBSS+ basal chamber volume. Measure the electrical resistance across the monolayer using the Millicell ERS system ohm meter. (The cells will be used if TEER is higher than 100 ohm*cm^2).
(§6) Preparation of the cell plates: • Remove the buffer from the apical side and basolateral side. Add 600 µL of donor solution (for A-to-B) or 500 µL of receiver solution (for B-to-A) to the apical wells based on plate map. • A fresh basolateral plate is prepared by adding 800 µL of receiver solution (for A-to-B) or 900 µL of donor solution (B-to-A) to the well of a new 24-well plate. • Put the apical plate and basolateral plate into 37° C. incubator.
(§7) Preparation of analytical plate: • After 5 min, transfer 100 µL of samples from all donors (for both A-to-B and B-to-A) into appropriate wells of a sample plate for D0. And transfer 100 µL of samples from all apical chambers (the donor of A-to-B and receiver of B-to-A) into appropriate wells of a microplate for Lucifer Yellow D0 (D0 LY) • Lay the apical plate to the basolateral plate to start transport process. • At 90 min, separate the apical and basolateral plates and transfer 100 µL of samples from all donors (for both A-to-B and B-to-A) into appropriate wells of a new sample plate for D90, and transfer 200 µL of samples from all receivers into appropriate wells of a sample plate for R90. Transfer 100 µL of samples from all basolateral chambers (receiver of A-to-B and donor of B-to-A) into appropriate wells of a new microplate for Lucifer Yellow R90 (R90 LY). • Determine LY permeability by reading D0 LY and R90 LY at an excitation wavelength of 485 nm and an emission wavelength of 535 nm using a fluorescent plate reader. • Sample preparation: • For receiver solution: 60 µL of sample + 60 µL ACN with IS (200 ng/mL Osalmid) • For donor solution: 6 µL of sample + 54 µL 0.4% DMSO/HBSS + 60 µL ACN with IS (200 ng/mL Osalmid) […]

Kinetic solubility assay = type: physicochemical; conditions: pH 7.4, aqueous buffer, kinetic from dmso stock; phosphate buffer pH7.4, 1% DMSO, 1 hour at room temperature
Method: This protocol is designed to measure kinetic solubility of test articles in assay buffer. The study will be conducted in accordance with International Bioethical Standards “World Medical Association Declaration of Helsinki.
100 Phosphate Buffer, pH7.4
• 1) Prepare stock solutions for test compounds in DMSO at 10 mM concentration. Dilute the stock solutions into 100 mM phosphate buffer in triplicate in 1.5 ml Eppendorf tubes to a target concentration of 100 µM with a final DMSO concentration of 1%: • 2) 4 µL of 10 mM DMSO stock solution into 396 µL of assay buffer. • 3) Keep the sample tubes shaken (1000 rpm) for 1 hour at room temperature. • 4) Centrifuge sample tubes for 10 min at 12000 rpm (Eppendrof-5424, about 13500 g) to precipitate un-dissolved particles. • 5) Transfer the supernatants to new tubes with different dilutions (undiluted, 10-fold diluted, 100-fold diluted, or other fold diluted). • 6) Add 5 µL of working solution and diluted supernatants to 95 µL ACN (containing IS). Analyze the samples by LC-MS-MS against calibration curve.
A standard calibration curve is prepared in Methanol/H2O (1:1).

MDCK permeability assay = type: in vitro ADME; conditions: dog, MDCK, pH 7.4
Method: as §1, §2, §3, §4, §5, §6, §7

| MDCK Permeability (A-B) (×10-6 cm/s) (MDCK; A-B) | MDCK Permeability (B-A) (×10-6 cm/s) (MDCK; B-A) | solubility kinetic at 1 h (Kinetic solubility assay) | Papp A→B at 90 min (MDCK permeability assay) | Papp B→A at 90 min (MDCK permeability assay) | Compound |
| --- | --- | --- | --- | --- | --- |
| 11.9 ×10-6 cm/s | 52.3 ×10-6 cm/s | – | – | – | CN1CCc2cc(F)c(Nc3ncc(Cl)c(N4C[C@](C)(CC(=O)O)c5ccccc54)n3)cc2C1 (single isomer, unassigned) [Example 5, (R)-2-[1-[5-chloro-2-[(6-fluoro-2-methyl-3,4-dihydro-1H-isoquinolin-7-yl)amino]pyrimidin-4-yl]-3-methyl-indolin-3-yl]acetic acid or (S)-2-[1-[5-chloro-2-[(6-fluoro-2-methyl-3,4-dihydro-1H-isoquinolin-7-yl)amino]pyrimidin-4-yl]-3-methyl-indolin-3-yl]acetic acid] |
| – | – | 7.71 µM (≈ 3.59 µg/mL) | 3.2 ×10⁻⁶ cm/s | 9.4 ×10⁻⁶ cm/s | COc1cc2c(cc1Nc1ncc(Cl)c(N3CC(C(=O)O)c4ccccc43)n1)CN(C)CC2 (centres unmarked) [Compound 7, reference compound] |
| – | – | 62.1 µM (≈ 29.8 µg/mL) | 4.5 ×10⁻⁶ cm/s | 38.5 ×10⁻⁶ cm/s | COc1cc2c(cc1Nc1ncc(Cl)c(N3CC(CC(=O)O)c4ccccc43)n1)CN(C)CC2 (centres unmarked) [Compound 8, reference compound] |
| – | – | 56.2 µM (≈ 28.8 µg/mL) | 2.6 ×10⁻⁶ cm/s | 58.9 ×10⁻⁶ cm/s | COc1cc2c(cc1Nc1ncc(Cl)c(N3CC(C)(CC(=O)O)c4ccc(F)cc43)n1)CN(C)CC2 (centres unmarked) [Compound 10, reference compound] |
| – | – | 1.5 µM (≈ 0.741 µg/mL) | 2.2 ×10⁻⁶ cm/s | 47.8 ×10⁻⁶ cm/s | COc1cc2c(cc1Nc1ncc(Cl)c(N3CC(C)(CC(=O)O)c4ccccc43)n1)CN(C)CC2 (centres unmarked) [Example 1, 2-(1-(5-chloro-2-((6-methoxy-2-methyl-1,2,3,4-tetrahydroisoquinolin-7-yl)amino)pyrimidin-4-yl)-3-methylindolin-3-yl)acetic acid] |
| – | – | 46.7 µM (≈ 22.5 µg/mL) | 7.7 ×10⁻⁶ cm/s | 41.1 ×10⁻⁶ cm/s | CN1CCc2cc(F)c(Nc3ncc(Cl)c(N4CC(C)(CC(=O)O)c5ccccc54)n3)cc2C1 (centres unmarked) [Example 4, 2-(1-(5-chloro-2-((6-fluoro-2-methyl-1,2,3,4-tetrahydroisoquinolin-7-yl)amino)pyrimidin-4-yl)-3-methylindolin-3-yl)acetic acid] |
